Laboratory results as given in PubChem BioAssay AID488835 (Broad Institute, 2010).

Target: Lysine-specific demethylase 4C (Homo sapiens) (UniProt Q9H3R0)
Assay: GASC-1 (JMJD2C) histone demethylase inhibitors, dose response, biochemical, DELFIA europium, cherry-picked samples (AID 488835);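 also: signal is the H3K9me2 demethylation product detected by a dimethyl-specific antibody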
Settings: GST-JMJD2C(1-420), H3K9me3 demethylation

Chain of Lysine-specific demethylase 4C (Homo sapiens) (Q9H3R0 1-420 limits assumed): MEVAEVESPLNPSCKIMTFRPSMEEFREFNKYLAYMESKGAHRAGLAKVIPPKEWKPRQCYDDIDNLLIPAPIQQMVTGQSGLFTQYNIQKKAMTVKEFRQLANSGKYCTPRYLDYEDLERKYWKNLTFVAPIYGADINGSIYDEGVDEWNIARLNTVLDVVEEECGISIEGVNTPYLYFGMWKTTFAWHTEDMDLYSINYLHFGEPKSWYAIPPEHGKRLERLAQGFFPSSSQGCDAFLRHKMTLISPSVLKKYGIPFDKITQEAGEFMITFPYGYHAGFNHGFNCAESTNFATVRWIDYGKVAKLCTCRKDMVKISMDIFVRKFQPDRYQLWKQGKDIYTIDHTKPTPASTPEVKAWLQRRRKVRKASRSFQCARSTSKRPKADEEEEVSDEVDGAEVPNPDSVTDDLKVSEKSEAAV

- AC50: 6.07 µM
Compound: C#CCOCCOCCOCCNc1nc(N2CCN(C(=O)CCCCCCCCCCNC(=O)[C@H]([C@@H](C)CC)n3cc(CCCCN=C(N)N)nn3)CC2)nc(N2CCN(C(=O)CCCCCCCCCCNC(=O)[C@H](CCCCN)n3cc(C)nn3)CC2)n1
